According to US20020037872A1, “N6 heterocyclic 5' modified adenosine derivatives” (CV Therapeutics, Inc., priority 1999, published 2002):
“Also recorded” adds a separate entry of the source.

Key:
A1 receptor [1] = biological target: T1, A1 receptor (Oryctolagus cuniculus, UniProt P34970); settings: administered prior to ischemia; cited from earlier work
T1 construct: a rabbit ischemia model wherein 2-chloro-N6-cyclopentyladenosine (CCPA) and R-PIA were administered prior to ischemia; host or cells: rabbit in vivo
T1 sequence (P34970 1-328): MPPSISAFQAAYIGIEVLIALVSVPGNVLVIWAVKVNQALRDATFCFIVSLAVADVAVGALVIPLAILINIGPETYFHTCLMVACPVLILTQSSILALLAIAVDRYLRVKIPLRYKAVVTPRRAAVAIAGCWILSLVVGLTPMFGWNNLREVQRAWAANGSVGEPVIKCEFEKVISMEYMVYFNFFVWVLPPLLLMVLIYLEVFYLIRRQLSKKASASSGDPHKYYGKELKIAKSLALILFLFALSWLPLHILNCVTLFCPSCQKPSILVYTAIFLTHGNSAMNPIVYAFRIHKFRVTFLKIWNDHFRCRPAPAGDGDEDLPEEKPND

A1 adenosine receptor [2] = biological target: T2, A1 adenosine receptor (Cavia porcellus, UniProt P47745); assay: Guinea pig isolated perfused heart: S-H interval, heart rate, atrial MAP; settings: for effect on atrial monophasic action potential: FIG. 1 panel B; for effect on AV nodal conduction time (S-H interval) / second-degree AV block: FIG. 1 panel C; for effect on heart rate (chronotropic): spontaneously beating hearts, FIG. 1 panel A
T2 construct: The hearts were quickly removed and rinsed in ice-cold Krebs-Henseleit solution; from tissue; host or cells: guinea pig isolated perfused heart
T2 sequence (P47745 1-326): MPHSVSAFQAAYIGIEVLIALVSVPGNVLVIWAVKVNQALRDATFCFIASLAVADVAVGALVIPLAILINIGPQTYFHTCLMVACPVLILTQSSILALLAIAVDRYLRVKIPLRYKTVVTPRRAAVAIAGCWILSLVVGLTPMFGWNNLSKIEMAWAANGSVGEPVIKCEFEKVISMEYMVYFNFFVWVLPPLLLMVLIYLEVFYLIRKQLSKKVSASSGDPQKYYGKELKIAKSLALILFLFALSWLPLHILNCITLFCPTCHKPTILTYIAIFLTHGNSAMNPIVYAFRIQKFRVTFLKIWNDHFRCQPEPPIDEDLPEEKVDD
Procedure: Guinea pigs of either sex weighing 250-300 g were anesthetized with methoxyflurane and killed by cervical dislocation. The hearts were quickly removed and rinsed in ice-cold Krebs-Henseleit solution. The aorta was cannulated and the heart retrogradely perfused at a constant flow of 10 ml min^−1 with modified Krebs-Henseleit solution containing (mM): NaCL 117.9, KCl 4.8, CaCl2 2.5, MgSO4 1.18, KH2PO4 1.2, Na2EDTA 0.5, ascorbic acid 0.14, glucose 5.5, pyruvic acid (sodium salt) 2.0, and NaHCO3 25. The K—H solution was oxygenated with 95% oxygen and 5% CO2, pH 7.4, and temperature maintained at 36° C.
Hearts were electrically paced at a cycle length of 290-300 ms (unless otherwise indicated) using a bipolar electrode placed on the right atrium or ventricle. The stimulator, an interval generator (Model 1830, WPI, Sarasota, Fla., U.S.A.) delivered stimuli through a stimulus isolation unit (Model 1880, WPI) as square wave pulses of 3 ms in duration and at least twice the threshold intensity. The stimulus-to-His bundle (S—H) interval was used as index of AV nodal conduction time and was measured on-line during constant atrial pacing from microcomputer with a DT-208 1A interface board (Axon Instruments, Burlingame, Calif., U.S.A.) In experiments to study the chronotropic effect (effect on heart rate) of A1 AdoR agonists, the hearts were allowed to beat spontaneously. An atrial electrogram was used to record the electrical activity of the atria and to measure the heart rate.
Monophasic action potentials (MAP) were recorded using a pressure contact silver-silver chloride electrode (Langendorf Probe, EP Technologies, Inc., Sunnyvale, Calif., U.S.A.) placed on the surface of the left atrium. […] Signals were considered adequate if they were stable for at least 5 min and the amplitudes of the MAPs exceeded 10 mV. The data were digitized at 2 kHz by a DT-2801A digitizing board (Data Translation, Marlboro, Mass., U.S.A.) and stored using the Snapshot data acquisition program (Snapshot Storage Scope, HEM Data Corp., Southfield, Mich., U.S.A.) for later analysis. The duration of the atrial monophasic action potential was measured at 90% repolarization (MAPD90), using the Snapshot program. After completion of dissection and instrumentation, the hearts were allowed to equilibrate for 30 min before the experiments were begun. Whenever the baseline and post-intervention (washout) values differed by more than 15% the data were discarded. Approximately 60-70% of the experiments conformed with this criteria.

A1 adenosine receptor [3] = biological target: T3, A1 adenosine receptor (Mesocricetus auratus, UniProt A0A1U8BVR4); assay: cAMP assay (SPA) in DDT1 cells, forskolin-induced cAMP; type: cell-based, hamster
T3 construct: endogenous in cells; host or cells: DDT1 (DDT1 MF-2) hamster vas deferens smooth muscle cells
T3 sequence (A0A1U8BVR4 1-326): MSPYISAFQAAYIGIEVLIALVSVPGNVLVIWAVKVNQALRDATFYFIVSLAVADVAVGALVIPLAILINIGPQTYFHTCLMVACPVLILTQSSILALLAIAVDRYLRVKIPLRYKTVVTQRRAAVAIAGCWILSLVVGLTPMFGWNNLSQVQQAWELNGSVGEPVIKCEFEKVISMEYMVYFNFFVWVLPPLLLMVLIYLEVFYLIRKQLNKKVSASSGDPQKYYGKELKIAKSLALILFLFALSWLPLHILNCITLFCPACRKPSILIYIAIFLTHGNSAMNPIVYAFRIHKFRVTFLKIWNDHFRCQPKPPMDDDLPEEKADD
Procedure: A scintillation proximity assay (SPA) using rabbit antibodies directed at cAMP using an added tracer of adenosine 3′,5′-cyclic phosphoric acid 2′-O-succinyl-3-[^125I]iodotyrosine methyl ester and fluoromicrospheres containing anti-rabbit specific antibodies as described by Amersham Pharmacia Biotech (Biotrak cellular communication assays). Briefly, DDT1 cells were cultured in clear bottomed 96 well microtiter plates with opaque wells at concentrations between 10^4 to 10^6 cells per well in 40 μl of HBSS at 37° C. (5% CO2 and 95% humidity). The partial or full A1 agonists (5 μl) of this invention were incubated at various concentrations with the DDT1 cells in the presence of rolipram (50 μM), and 5 μM forskolin for 10 min at 37° C. The cells were immediately lysed by treatment 5 μl of 10% dodecyltrirnethylammonium bromide followed by shaking using rnicroplate shaker. After incubation of the plate for 5 minutes, an imnuunoreagent solution (150 μl containing equal volumes of tracer, antiserum, and SPA fluorospheres) was added to each well followed by sealing the plate. After 15-20 h at 23° C., the amount of bound [^125] cAM to the fluoromicrospheres was determined by counting in a microtitre plate scintillation counter for 2 minutes. Comparison of counts with standard curves generated for cAMP using a similar protocol afforded the cAMP present after cell lysis.

A1 receptor [4] = biological target: A1 receptor (Cavia porcellus, UniProt P47745); settings: chronic administration for 7 days; cited from earlier work
white adipocytes = settings: cited from earlier work
[5] = seizures induced by DMCM; cited from earlier work

SMILES | effect on atrial monophasic action potential (A1 adenosine receptor [2]) | effect on AV nodal conduction time (S-H interval) (A1 adenosine receptor [2]) | second-degree AV block (A1 adenosine receptor [2]) | effect on heart rate (chronotropic) (A1 adenosine receptor [2]) | further results
OC[C@H]1O[C@@H](n2cnc3c(NC4CCCC4)nc(Cl)nc32)[C@H](O)[C@@H]1O [CCPA, 2-chloro-N6-cyclopentyladenosine] | shortened the monophasic atrial action potential | prolonged the S—H interval | caused second-degree AV block | slowed heart rate | protection with respect to infarct size (A1 receptor [1]): providing protection with respect to infarct size
OC[C@H]1O[C@@H](n2cnc3c(NC4CCCC4)ncnc32)[C@H](O)[C@@H]1O [CPA, N-6-cyclopentyladenosine] | shortened the monophasic atrial action potential | prolonged the S—H interval | caused second-degree AV block | slowed heart rate | second degree AV block (A1 adenosine receptor [2]; 30 nM CPA, four hearts): Second degree AV block occurred in all hearts; effect on forskolin induced cAMP generation (A1 adenosine receptor [3]; DDT1 cells): diminished the amount of forskolin induced cAMP generation back to basal levels; cAMP (A1 adenosine receptor [3]; normalized to full agonist CPA, 5 μM forskolin, 50 μM rolipram): 100%
O=c1[nH]c(=O)c2[nH]c(C3CCCC3)nc2[nH]1 [CPX, 8-cyclopentylxanthine] |  |  |  |  | antagonism of S-H interval prolongation caused by Compound 6 (A1 adenosine receptor [2]; CPX 50 nM, cycle length 300 msec, FIG. 2): significant (P<0.05); also recorded: antagonizes the prolongation of S—H interval caused by compound 6
C[C@H](Cc1ccccc1)Nc1ncnc2c1ncn2[C@@H]1O[C@H](CO)[C@@H](O)[C@H]1O [R-PIA, R-N6-phenylisopropyladenosine] |  |  |  |  | desensitization of A1 receptor (dromotropic response) (A1 receptor [4]): led to a desensitization; leptin release (white adipocytes): increase the leptin released from white adipocytes
Cc1ccccc1CNc1ncnc2c1ncn2[C@@H]1O[C@H](CO)[C@@H](O)[C@H]1O [metrifudil] |  |  |  |  | anticonvulsant activity [5]: potent anticonvulsant
